pIC50, pKd: −log10 of the molar value.
Assays:
FLT3 ITD, D835V = target: T1, FLT3 ITD, D835V (Homo sapiens, UniProt P36888, D835V, form not given); test: DiscoverX KINOMEscan competition binding, FLT3 ITD, D835V; settings: read-out: FLT3 ITD, D835V Kd
T1 sequence (P36888 1-993 D835V): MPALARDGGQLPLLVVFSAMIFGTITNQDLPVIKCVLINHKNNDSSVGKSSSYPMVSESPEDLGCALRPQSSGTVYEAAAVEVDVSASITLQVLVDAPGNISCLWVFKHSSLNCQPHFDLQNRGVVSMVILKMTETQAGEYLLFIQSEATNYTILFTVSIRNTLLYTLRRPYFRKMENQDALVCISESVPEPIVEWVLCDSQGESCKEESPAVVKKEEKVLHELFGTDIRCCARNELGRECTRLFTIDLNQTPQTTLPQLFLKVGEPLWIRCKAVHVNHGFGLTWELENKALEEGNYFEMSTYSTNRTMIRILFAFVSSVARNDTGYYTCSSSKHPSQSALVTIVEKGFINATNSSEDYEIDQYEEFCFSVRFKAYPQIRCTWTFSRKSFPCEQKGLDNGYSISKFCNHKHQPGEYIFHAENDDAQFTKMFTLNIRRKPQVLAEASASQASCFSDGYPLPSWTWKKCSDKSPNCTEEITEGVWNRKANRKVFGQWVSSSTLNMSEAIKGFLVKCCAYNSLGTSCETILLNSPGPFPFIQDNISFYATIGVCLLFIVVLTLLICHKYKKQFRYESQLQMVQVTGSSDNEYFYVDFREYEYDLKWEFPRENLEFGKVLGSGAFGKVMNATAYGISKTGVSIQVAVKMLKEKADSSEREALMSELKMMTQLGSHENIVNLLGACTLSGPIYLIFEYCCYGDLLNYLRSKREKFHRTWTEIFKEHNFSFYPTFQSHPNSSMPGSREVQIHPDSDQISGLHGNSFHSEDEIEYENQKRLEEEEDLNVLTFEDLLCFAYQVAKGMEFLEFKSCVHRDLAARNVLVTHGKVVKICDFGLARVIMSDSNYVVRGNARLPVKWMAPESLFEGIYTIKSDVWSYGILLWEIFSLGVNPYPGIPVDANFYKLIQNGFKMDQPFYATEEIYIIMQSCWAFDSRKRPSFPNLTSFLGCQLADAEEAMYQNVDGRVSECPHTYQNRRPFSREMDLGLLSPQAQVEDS

IRAK1 = IRAK1 (Homo sapiens, UniProt P51617); test: DiscoverX KINOMEscan competition binding, IRAK1; set-up: purchased RBC (Reaction Biology) HotSpot assay
IRAK4 = target: T2, IRAK4 (Homo sapiens, UniProt Q9NWZ3); test: RBC HotSpot Kinase Assay, IRAK4; settings: IRAK4 IC50
T2 sequence (Q9NWZ3 1-460): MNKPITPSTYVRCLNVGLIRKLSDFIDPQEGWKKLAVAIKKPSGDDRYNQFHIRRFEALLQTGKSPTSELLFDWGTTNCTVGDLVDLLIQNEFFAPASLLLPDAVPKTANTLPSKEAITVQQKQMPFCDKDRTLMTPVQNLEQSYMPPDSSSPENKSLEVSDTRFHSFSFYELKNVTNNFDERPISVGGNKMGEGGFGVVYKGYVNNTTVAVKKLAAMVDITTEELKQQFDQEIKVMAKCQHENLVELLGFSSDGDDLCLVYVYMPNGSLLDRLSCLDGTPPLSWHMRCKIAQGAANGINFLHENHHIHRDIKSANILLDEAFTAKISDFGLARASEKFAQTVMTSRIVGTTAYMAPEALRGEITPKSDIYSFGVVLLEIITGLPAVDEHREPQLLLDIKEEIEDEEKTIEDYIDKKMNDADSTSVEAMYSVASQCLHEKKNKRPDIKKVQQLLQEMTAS

MOLM14 F691L cells = test: cells; assay type: cell-based; settings: Homo sapiens, MOLM-14, 48 h, 48 hours, Cell Titer Glo; read-out: MOLM14 F691L IC50
FLT3 Autoinh. = target: T3, FLT3 Autoinh. (Homo sapiens, UniProt P36888); test: DiscoverX KINOMEscan competition binding, FLT3 Autoinh.
T3 construct: purchased DiscoverX (KINOMEscan)
T3 sequence (P36888 564-993 limits assumed): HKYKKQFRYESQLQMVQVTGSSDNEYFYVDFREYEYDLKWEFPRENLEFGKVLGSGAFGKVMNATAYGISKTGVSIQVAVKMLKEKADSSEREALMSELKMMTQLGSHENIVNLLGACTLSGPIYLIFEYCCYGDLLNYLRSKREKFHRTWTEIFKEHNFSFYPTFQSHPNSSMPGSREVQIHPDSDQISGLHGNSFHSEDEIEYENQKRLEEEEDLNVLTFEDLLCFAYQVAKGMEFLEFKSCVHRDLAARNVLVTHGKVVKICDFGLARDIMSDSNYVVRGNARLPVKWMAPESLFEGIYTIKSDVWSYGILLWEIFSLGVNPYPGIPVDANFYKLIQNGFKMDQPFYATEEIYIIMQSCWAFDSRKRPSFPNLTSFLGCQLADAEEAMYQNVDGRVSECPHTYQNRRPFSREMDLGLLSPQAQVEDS

IRAK1, sequence (P51617 whole entry): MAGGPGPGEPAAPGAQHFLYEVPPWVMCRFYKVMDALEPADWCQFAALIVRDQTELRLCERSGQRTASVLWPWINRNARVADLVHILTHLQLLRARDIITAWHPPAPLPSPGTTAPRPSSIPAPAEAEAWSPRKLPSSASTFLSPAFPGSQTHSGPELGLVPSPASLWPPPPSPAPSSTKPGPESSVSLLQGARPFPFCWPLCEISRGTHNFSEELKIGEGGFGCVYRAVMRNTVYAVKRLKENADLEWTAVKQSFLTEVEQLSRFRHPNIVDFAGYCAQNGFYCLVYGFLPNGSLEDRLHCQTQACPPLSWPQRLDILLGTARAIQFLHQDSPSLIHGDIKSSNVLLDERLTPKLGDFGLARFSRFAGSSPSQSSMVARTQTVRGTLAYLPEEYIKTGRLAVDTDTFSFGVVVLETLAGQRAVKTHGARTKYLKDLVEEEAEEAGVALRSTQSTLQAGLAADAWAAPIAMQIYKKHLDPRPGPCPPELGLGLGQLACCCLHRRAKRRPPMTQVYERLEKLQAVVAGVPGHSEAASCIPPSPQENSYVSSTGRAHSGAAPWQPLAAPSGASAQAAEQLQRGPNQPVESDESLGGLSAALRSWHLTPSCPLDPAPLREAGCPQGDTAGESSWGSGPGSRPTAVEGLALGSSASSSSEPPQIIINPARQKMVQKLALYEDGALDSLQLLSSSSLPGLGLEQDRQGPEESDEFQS

Row | SMILES | pKd (FLT3 ITD, D835V) | pKd (IRAK1) | pIC50 (IRAK4) | pIC50 (MOLM14 F691L cells) | pKd (FLT3 Autoinh.)
1 | COc1cc2ncc(-c3cncc(N[C@H]4CNC[C@@H]4F)n3)n2nc1C1CC1 [Compound 22, 6-(6-cyclopropyl-7-methoxyimidazo[1,2-b]pyridazin-3-yl)-N-((3S,4S)-4-fluoropyrrolidin-3-yl)pyrazin-2-amine] | 10.24 | 8.19 | 9.00 | – | 7.48
2 | COc1cc2ncc(-c3ccnc(N[C@@H]4CCCNC4)n3)n2nc1C1CC1 [Compound 50, (R)-4-(6-cyclopropyl-7-methoxyimidazo[1,2-b]pyridazin-3-yl)-N-(piperidin-3-yl)pyrimidin-2-amine] | – | – | 8.40 | 6.76 | –
3 | COc1cc2ncc(-c3ccnc(N[C@H]4CNCC[C@@H]4F)n3)n2nc1C1CC1 [Compound 51, 4-(6-cyclopropyl-7-methoxyimidazo[1,2-b]pyridazin-3-yl)-N-((3S,4S)-4-fluoropiperidin-3-yl)pyrimidin-2-amine] | 10.15 | 8.62 | 9.22 | 6.91 | 7.40

Other lines, results leading:

Row | pKd (FLT3 ITD, D835V) | pKd (IRAK1) | pIC50 (IRAK4) | pIC50 (MOLM14 F691L cells) | pKd (FLT3 Autoinh.) | SMILES
4 | 10.10 | 8.82 | 9.15 | 6.36 | 7.60 | CC(O)(c1cn2c(-c3ccnc(N[C@H]4CNCC[C@@H]4F)n3)cnc2cn1)C(F)(F)F (single isomer, unassigned) [Compound 72]
5 | 10.46 | 8.12 | 8.70 | 7.07 | – | F[C@H]1CCNC[C@@H]1Nc1cncc(-c2cnc3cc(OC4CC4)ccn23)n1 [Compound 12, 6-(7-cyclopropoxyimidazo[1,2-a]pyridin-3-yl)-N-((3S,4S)-4-fluoropiperidin-3-yl)pyrazin-2-amine]
6 | 10.35 | 8.28 | 9.15 | – | 7.60 | COc1cc2ncc(-c3cncc(N[C@H]4CNCC[C@@H]4F)n3)n2nc1C1CC1 [Compound 24, 6-(6-cyclopropyl-7-methoxyimidazo[1,2-b]pyridazin-3-yl)-N-((3S,4S)-4-fluoropiperidin-3-yl)pyrazin-2-amine]
7 | 11.05 | 9.52 | > 9.30 | 7.07 | 8.64 | COc1cc2ncc(-c3ccnc(N[C@@H]4CCCNC4)n3)n2cc1C(C)(C)O [Compound 44, (R)-2-(7-methoxy-3-(2-(piperidin-3-ylamino)pyrimidin-4-yl)imidazo[1,2-a]pyridin-6-yl)propan-2-ol]
8 | 10.40 | 8.59 | 9.00 | 6.51 | 7.80 | COc1cc2ncc(-c3ccnc(N[C@H]4CNC[C@@H]4F)n3)n2nc1C1CC1 [Compound 49, 4-(6-cyclopropyl-7-methoxyimidazo[1,2-b]pyridazin-3-yl)-N-((3S,4S)-4-fluoropyrrolidin-3-yl)pyrimidin-2-amine]

From patent US20250154144A1 (CHILDREN'S HOSPITAL MEDICAL CENTER, priority 2021, published 2025)
